According to patent US20250114345A1, “COMPOUNDS AND COMPOSITIONS AS CBP/P300 DEGRADERS AND USES THEREOF” (Oncopia Therapeutics, Inc. d/b/a/ SK Life Science Labs, priority 2023, published 2025):

Key:
CBP = biological target: T1, CBP (Homo sapiens, UniProt Q92793); assay: CBP degradation, HiBit technology in A549 CBP HiBit cells (24 h); format: cell-based; conditions: 24 hrs post treatment
T1 construct: host or cells: A549 CBP HiBit cells
Outline: (§1)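 Degradation potency and Dmax came from luminescence after 10 min room-temperature lysis with HiBit detection buffer. Beforehand, HiBit-tagged A549 lines received serial compound dilutions (10 mM DMSO stocks) at 37 °C, 5% CO2. CBP cells were read at 24 h, p300 cells at 2 h.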

p300 = biological target: T2, p300 (Homo sapiens, UniProt Q09472); assay: P300 degradation, HiBit technology in A549 P300 HiBit cells (2 h); format: cell-based; conditions: 2 hrs post treatment; for Dmax: A549, A549 P300 HiBit cells; for DC50: A549 P300 HiBit cells
T2 construct: host or cells: A549 P300 HiBit cells
Outline: as §1

T2 sequence (Q09472 whole entry): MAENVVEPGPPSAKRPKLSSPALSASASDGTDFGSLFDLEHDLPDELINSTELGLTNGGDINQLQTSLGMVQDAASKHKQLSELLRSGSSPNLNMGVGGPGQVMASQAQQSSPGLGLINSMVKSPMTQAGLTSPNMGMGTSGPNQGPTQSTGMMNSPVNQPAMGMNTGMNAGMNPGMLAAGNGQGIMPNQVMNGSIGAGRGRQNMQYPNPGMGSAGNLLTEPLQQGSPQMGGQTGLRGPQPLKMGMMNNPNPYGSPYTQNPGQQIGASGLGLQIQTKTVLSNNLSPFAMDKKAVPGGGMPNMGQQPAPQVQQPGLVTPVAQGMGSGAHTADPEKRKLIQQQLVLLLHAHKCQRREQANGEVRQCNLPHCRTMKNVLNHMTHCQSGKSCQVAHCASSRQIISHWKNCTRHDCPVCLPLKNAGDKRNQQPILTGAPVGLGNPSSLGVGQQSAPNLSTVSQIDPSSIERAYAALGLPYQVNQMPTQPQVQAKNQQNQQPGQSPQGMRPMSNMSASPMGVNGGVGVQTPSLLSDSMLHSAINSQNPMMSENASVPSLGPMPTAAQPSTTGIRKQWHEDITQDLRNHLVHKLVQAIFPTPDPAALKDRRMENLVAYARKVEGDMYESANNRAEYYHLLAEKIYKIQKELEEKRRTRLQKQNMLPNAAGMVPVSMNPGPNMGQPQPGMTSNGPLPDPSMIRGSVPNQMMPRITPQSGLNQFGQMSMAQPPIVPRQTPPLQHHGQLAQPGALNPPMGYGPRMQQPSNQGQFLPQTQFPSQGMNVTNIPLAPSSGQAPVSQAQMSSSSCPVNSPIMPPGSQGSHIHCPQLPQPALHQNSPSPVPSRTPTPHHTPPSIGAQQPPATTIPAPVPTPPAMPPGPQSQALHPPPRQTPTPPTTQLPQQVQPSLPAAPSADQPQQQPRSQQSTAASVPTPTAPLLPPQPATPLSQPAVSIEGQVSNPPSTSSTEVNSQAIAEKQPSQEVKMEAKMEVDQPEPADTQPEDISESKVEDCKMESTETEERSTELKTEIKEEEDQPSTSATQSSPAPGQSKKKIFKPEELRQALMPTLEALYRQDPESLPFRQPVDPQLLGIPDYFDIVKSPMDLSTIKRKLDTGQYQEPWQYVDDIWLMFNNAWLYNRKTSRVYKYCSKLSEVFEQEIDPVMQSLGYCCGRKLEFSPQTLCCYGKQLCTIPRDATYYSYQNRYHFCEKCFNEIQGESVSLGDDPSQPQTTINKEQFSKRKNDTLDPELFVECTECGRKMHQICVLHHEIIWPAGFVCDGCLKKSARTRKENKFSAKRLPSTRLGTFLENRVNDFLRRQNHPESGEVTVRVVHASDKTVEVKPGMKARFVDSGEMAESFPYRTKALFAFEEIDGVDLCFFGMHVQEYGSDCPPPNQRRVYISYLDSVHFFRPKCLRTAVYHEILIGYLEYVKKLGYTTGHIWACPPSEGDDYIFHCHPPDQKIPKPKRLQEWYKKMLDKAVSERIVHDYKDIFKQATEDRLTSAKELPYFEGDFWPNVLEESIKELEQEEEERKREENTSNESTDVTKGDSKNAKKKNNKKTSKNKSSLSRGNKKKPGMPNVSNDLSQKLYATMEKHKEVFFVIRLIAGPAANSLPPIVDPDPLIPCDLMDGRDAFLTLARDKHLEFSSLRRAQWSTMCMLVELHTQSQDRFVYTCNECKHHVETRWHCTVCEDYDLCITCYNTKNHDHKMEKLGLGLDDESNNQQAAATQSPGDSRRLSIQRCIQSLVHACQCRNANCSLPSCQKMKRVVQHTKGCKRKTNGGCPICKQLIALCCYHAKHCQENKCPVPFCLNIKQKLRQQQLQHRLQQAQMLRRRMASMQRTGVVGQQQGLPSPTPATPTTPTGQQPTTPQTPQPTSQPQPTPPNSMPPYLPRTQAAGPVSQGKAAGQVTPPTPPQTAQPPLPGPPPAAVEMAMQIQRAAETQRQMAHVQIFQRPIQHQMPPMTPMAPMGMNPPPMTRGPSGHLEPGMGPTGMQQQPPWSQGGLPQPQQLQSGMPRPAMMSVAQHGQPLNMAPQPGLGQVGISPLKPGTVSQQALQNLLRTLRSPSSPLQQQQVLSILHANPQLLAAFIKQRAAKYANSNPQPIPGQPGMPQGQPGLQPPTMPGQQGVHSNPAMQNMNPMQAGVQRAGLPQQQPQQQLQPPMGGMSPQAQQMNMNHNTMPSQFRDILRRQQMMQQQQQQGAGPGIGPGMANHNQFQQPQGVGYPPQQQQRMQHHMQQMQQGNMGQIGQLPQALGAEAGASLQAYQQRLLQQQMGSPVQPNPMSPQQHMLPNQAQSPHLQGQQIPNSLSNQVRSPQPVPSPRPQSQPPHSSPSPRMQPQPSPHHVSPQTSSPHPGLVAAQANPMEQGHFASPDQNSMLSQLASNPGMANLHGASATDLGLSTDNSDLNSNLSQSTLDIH
T1 sequence (Q92793 whole entry): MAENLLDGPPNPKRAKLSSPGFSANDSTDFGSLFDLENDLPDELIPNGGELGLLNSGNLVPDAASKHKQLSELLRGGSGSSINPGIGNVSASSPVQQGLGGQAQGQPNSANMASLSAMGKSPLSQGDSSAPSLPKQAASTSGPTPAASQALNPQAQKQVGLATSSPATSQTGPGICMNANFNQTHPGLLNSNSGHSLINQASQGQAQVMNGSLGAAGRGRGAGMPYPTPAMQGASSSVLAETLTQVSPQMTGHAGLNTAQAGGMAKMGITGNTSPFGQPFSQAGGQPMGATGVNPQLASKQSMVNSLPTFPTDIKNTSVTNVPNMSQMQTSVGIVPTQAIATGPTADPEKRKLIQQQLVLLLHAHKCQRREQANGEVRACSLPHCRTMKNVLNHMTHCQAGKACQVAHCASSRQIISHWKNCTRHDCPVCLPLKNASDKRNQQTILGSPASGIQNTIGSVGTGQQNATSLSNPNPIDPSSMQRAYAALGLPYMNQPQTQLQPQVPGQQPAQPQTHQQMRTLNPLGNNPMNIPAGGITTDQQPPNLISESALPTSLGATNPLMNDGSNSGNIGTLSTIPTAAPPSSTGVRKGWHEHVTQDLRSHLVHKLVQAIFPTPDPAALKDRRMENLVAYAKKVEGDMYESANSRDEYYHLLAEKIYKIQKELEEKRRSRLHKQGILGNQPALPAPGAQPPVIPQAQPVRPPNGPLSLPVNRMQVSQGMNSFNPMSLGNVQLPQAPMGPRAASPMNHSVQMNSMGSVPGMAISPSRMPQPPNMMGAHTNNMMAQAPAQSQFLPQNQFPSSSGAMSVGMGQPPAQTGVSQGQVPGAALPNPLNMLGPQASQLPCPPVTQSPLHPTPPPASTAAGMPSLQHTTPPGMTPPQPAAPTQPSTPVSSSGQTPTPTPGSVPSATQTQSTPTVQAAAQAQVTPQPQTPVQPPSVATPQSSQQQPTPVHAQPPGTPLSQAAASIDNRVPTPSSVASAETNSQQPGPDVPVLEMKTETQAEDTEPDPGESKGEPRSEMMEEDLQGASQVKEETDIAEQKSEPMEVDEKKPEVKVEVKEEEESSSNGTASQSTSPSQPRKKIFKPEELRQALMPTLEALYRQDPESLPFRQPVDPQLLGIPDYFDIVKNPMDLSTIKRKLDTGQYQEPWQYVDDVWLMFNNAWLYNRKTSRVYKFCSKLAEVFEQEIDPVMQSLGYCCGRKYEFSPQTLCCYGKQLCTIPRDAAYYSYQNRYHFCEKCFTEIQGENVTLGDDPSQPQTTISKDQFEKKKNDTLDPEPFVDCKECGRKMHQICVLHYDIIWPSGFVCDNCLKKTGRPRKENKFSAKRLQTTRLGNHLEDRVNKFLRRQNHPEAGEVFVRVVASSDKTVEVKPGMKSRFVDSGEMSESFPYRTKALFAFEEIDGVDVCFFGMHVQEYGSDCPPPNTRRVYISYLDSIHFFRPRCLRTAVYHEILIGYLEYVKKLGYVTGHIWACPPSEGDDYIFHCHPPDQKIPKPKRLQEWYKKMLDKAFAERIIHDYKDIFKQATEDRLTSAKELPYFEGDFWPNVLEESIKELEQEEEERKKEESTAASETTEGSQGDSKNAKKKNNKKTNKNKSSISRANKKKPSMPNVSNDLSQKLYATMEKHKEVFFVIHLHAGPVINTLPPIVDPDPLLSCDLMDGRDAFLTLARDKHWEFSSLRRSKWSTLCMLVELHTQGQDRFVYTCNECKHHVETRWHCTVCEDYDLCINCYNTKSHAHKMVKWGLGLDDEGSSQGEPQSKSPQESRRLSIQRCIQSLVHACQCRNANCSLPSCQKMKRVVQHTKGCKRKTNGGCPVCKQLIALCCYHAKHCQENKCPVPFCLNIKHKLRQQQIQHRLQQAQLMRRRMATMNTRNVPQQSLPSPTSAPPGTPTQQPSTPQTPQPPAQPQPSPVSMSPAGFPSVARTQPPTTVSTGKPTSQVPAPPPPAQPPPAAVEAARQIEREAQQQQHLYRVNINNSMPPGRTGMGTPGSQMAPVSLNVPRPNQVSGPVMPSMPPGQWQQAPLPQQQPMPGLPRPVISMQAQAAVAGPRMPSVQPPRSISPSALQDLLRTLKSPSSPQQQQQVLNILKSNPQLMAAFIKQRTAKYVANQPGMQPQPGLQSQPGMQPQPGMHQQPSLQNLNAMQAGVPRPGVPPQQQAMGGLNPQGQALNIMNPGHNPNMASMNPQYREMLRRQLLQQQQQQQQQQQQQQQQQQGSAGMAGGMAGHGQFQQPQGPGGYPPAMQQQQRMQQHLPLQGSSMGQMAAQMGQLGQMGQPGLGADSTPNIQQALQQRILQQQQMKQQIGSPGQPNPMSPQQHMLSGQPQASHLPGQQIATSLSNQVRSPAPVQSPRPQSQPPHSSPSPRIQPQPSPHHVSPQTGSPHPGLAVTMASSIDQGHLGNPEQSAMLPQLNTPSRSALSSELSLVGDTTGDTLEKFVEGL

Row | SMILES | DC50 (CBP) [nM] | Dmax (CBP) [%] | Dmax (p300) [%] | DC50 (p300) [nM]
1 | CC(C)c1cc(-c2cccc3cc(-c4ccc(C(=O)NCC#Cc5ccn6ncc(C7CCC(=O)NC7=O)c6c5)nc4)ncc23)cc2c1n(C)c(=O)n2C (centres unmarked) [Example A172, N-(3-(3-(2,6-dioxo-piperidin-3-yl)pyrazolo[1,5-a]pyridin-5-yl)prop-2-yn-1-yl)-5-(8-(7-isopropyl-1,3-dimethyl-2-oxo-2,3-dihydro-1H-benzo[d]imidazol-5-yl)isoquinolin-3-yl)picolinamide] | 100 to 999 | < 20 | > 80 | < 1
2 | Cc1cc(-c2ncc3c(n2)OCCN3c2ccc3c(c2)n(C)c(=O)n3C)cnc1C(=O)NCC#Cc1cc2c(C3CCC(=O)NC3=O)cccc2o1 (centres unmarked) [Example A173, 5-(5-(1,3-dimethyl-2-oxo-2,3-dihydro-1H-benzo[d]imidazol-5-yl)-6,7-dihydro-5H-pyrimido[4,5-b][1,4]oxazin-2-yl)-N-(3-(4-(2,6-dioxopiperidin-3-yl)benzofuran-2-yl)prop-2-yn-1-yl)-3-methylpicolinamide] | > 1000 | < 20 | > 80 | 1 to 9.9
3 | Cc1cc(-c2ncc3c(n2)OCCN3c2ccc3c(c2)n(C)c(=O)n3C)cnc1C(=O)NCC#Cc1cc2c([C@H]3CCC(=O)NC3=O)cccc2o1 [Example A174, (R)-5-(5-(1,3-dimethyl-2-oxo-2,3-dihydro-1H-benzo [d]imidazol-5-yl)-6,7-dihydro-5H-pyrimido [4,5-b][1,4]oxazin-2-yl)-N-(3-(4-(2,6-dioxopiperidin-3-yl)benzofuran-2-yl)prop-2-yn-1-yl)-3-methylpicolinamide] | > 1000 | < 20 | > 80 | 1 to 9.9
4 | Cc1cc(-c2ncc3c(n2)OCCN3c2ccc3c(c2)n(C)c(=O)n3C)cnc1C(=O)NCC#Cc1cc2c([C@@H]3CCC(=O)NC3=O)cccc2o1 [Example A175, (S)-5-(5-(1,3-dimethyl-2-oxo-2,3-dihydro-1H-benzo[d]imidazol-5-yl)-6,7-dihydro-5H-pyrimido[4,5-b] [1,4]oxazin-2-yl)-N-(3-(4-(2,6-dioxo-piperidin-3-yl)benzofuran-2-yl)prop-2-yn-1-yl)-3-methylpicolinamide] | > 1000 | < 20 | > 80 | 10 to 99
5 | Cc1cc(-c2cc3cccc(-c4cc(C(C)C)c5c(c4)n(C)c(=O)n5C)c3cn2)cnc1C(=O)NCC#Cc1cccc(NC23CC(C2)C(=O)NC3=O)c1 [Example A177, N-(3-(3-((2,4-dioxo-3-azabicyclo[3.1.1]heptan-1-yl)amino)phenyl)prop-2-yn-1-yl)-5-(8-(7-isopropyl-1,3-dimethyl-2-oxo-2,3-dihydro-1H-benzo[d]imidazol-5-yl)isoquinolin-3-yl)-3-methylpicolinamide] | > 1000 | < 20 | > 80 | 10 to 99
6 | Cn1c(=O)n(C)c2cc(N3CCOc4nc(-c5ccc(C(=O)NCC#Cc6ccc7occ(C89CC(C8)C(=O)NC9=O)c7c6)nc5)ncc43)ccc21 [Example A178, 5-(5-(1,3-dimethyl-2-oxo-2,3-dihydro-1H-benzo[d]imidazol-5-yl)-6,7-dihydro-5H-pyrimido[4,5-b][1,4]oxazin-2-yl)-N-(3-(3-(2,4-dioxo-3-azabicyclo [3.1.1]heptan-1-yl)benzofuran-5-yl)prop-2-yn-1-yl)picolinamide] | > 1000 | < 20 | 20 to 39 | 10 to 99
7 | Cc1cc(-c2cc3cccc(-c4ccc5c(c4)n(C)c(=O)n5C)c3cn2)cnc1C(=O)NCC#Cc1cc2c(C3CCC(=O)NC3=O)cccc2o1 (centres unmarked) [Example A180, 5-(8-(1,3-dimethyl-2-oxo-2,3-dihydro-1H-benzo[d]imidazol-5-yl)isoquinolin-3-yl)-N-(3-(4-(2,6-dioxo-piperidin-3-yl)benzofuran-2-yl)prop-2-yn-1-yl)-3-methylpicolinamide] | > 1000 | < 20 | > 80 | 1 to 9.9
8 | Cc1cc(-c2cc3cccc(-c4ccc5c(c4)n(C)c(=O)n5C)c3cn2)cnc1C(=O)NCC#Cc1cc2c([C@H]3CCC(=O)NC3=O)cccc2o1 [Example A181, (R)-5-(8-(1,3-dimethyl-2-oxo-2,3-dihydro-1H-benzo [d]imidazol-5-yl)isoquinolin-3-yl)-N-(3-(4-(2,6-dioxopiperidin-3-yl)benzofuran-2-yl)prop-2-yn-1-yl)-3-methylpicolinamide] | 100 to 999 | < 20 | > 80 | 1 to 9.9
9 | Cc1cc(-c2cc3cccc(-c4ccc5c(c4)n(C)c(=O)n5C)c3cn2)cnc1C(=O)NCC#Cc1cc2c([C@@H]3CCC(=O)NC3=O)cccc2o1 [Example A182, (S)-5-(8-(1,3-dimethyl-2-oxo-2,3-dihydro-1H-benzo[d]imidazol-5-yl)isoquinolin-3-yl)-N-(3-(4-(2,6-dioxopiperidin-3-yl)benzofuran-2-yl)prop-2-yn-1-yl)-3-methylpicolinamide] | > 1000 | < 20 | > 80 | 1 to 9.9
10 | CC(C)c1cc(-c2cccc3cc(-c4ccc(C(=O)NCC#Cc5cc6c(F)ccc(C7CCC(=O)NC7=O)c6o5)nc4)ncc23)cc2c1n(C)c(=O)n2C (centres unmarked) [Example A185, N-(3-(7-(2,6-dioxo-piperidin-3-yl)-4-fluorobenzofuran-2-yl)prop-2-yn-1-yl)-5-(8-(7-isopropyl-1,3-dimethyl-2-oxo-2,3-dihydro-1H-benzo [d]imidazol-5-yl)isoquinolin-3-yl)picolinamide] | > 1000 | < 20 | 60 to 79 | 10 to 99
11 | Cc1cc(-c2cc3cccc(-c4cnc5c(c4)n(C)c(=O)n5C)c3cn2)cnc1C(=O)NCC#Cc1cc2c(C3CCC(=O)NC3=O)cccc2o1 (centres unmarked) [Example A189, 5-(8-(1,3-dimethyl-2-oxo-2,3-dihydro-1H-imidazo[4,5-b]pyridin-6-yl)isoquinolin-3-yl)-N-(3-(4-(2,6-dioxopiperidin-3-yl)benzofuran-2-yl)prop-2-yn-1-yl)-3-methylpicolinamide] | > 1000 | < 20 | > 80 | 1 to 9.9

The next lines start with the values.

Row | DC50 (CBP) [nM] | Dmax (CBP) [%] | Dmax (p300) [%] | DC50 (p300) [nM] | SMILES
12 | > 1000 | < 20 | > 80 | 10 to 99 | CC(C)c1cc(-c2cccc3cc(-c4ccc(C(=O)NCC#Cc5oc6c(C7CCC(=O)NC7=O)cccc6c5F)nc4)ncc23)cc2c1n(C)c(=O)n2C (centres unmarked) [Example A191, N-(3-(7-(2,6-dioxo-piperidin-3-yl)-3-fluorobenzofuran-2-yl)prop-2-yn-1-yl)-5-(8-(7-isopropyl-1,3-dimethyl-2-oxo-2,3-dihydro-1H-benzo [d]imidazol-5-yl)isoquinolin-3-yl)picolinamide]
13 | > 1000 | < 20 | > 80 | 1 to 9.9 | Cn1c(=O)n(C)c2c(N3CC4CCC(C3)O4)nc(-c3cccc4cc(-c5ccc(C(=O)NCC#Cc6ccc7occ(C89CC(C8)C(=O)NC9=O)c7c6)nc5)ncc34)cc21 [Example A194, 5-(8-(4-(8-oxa-3-azabicyclo[3.2.1]octan-3-yl)-1,3-dimethyl-2-oxo-2,3-dihydro-1H-imidazo[4,5-c]pyridin-6-yl)isoquinolin-3-yl)-N-(3-(3-(2,4-dioxo-3-azabicyclo[3.1.1]heptan-1-yl)benzofuran-5-yl)prop-2-yn-1-yl)picolinamide]
14 | > 1000 | < 20 | > 80 | 1 to 9.9 | Cc1cc(-c2ncc3c(n2)OCCN3c2ccc3c(c2)n(C)c(=O)n3C)cnc1C(=O)NCC#Cc1cc2c(C3CCC(=O)NC3=O)nccc2o1 (centres unmarked) [Example A195, 5-(5-(1,3-dimethyl-2-oxo-2,3-dihydro-1H-benzo[d]imidazol-5-yl)-6,7-dihydro-5H-pyrimido[4,5-b][1,4]oxazin-2-yl)-N-(3-(4-(2,6-dioxopiperidin-3-yl)furo[3,2-c]pyridin-2-yl)prop-2-yn-1-yl)-3-methylpicolinamide]
15 | > 1000 | < 20 | > 80 | 1 to 9.9 | CC(C)c1cc(-c2cccc3cc(-c4ccc(C(=O)NCC#Cc5cc6c(C7CCC(=O)NC7=O)cccc6o5)nc4)ncc23)cc2c1n(C)c(=O)n2C (centres unmarked) [Example A197, N-(3-(4-(2,6-dioxo-piperidin-3-yl)benzofuran-2-yl)prop-2-yn-1-yl)-5-(8-(7-isopropyl-1,3-dimethyl-2-oxo-2,3-dihydro-1H-benzo [d]imidazol-5-yl)isoquinolin-3-yl)picolinamide]
16 | 100 to 999 | < 20 | > 80 | 1 to 9.9 | Cc1cc(N2CCOc3nc(-c4ccc(C(=O)NCC#Cc5cc6c(C7CCC(=O)NC7=O)cccc6o5)nc4)ncc32)cc2c1n(C)c(=O)n2C (centres unmarked) [Example A199, N-(3-(4-(2,6-dioxo-piperidin-3-yl)benzofuran-2-yl)prop-2-yn-1-yl)-5-(5-(1,3,7-trimethyl-2-oxo-2,3-dihydro-1H-benzo[d]imidazol-5-yl)-6,7-dihydro-5H-pyrimido[4,5-b] [1,4]oxazin-2-yl)picolinamide]
17 | > 1000 | < 20 | 60 to 79 | 10 to 99 | CC(C)c1cc(-c2cccc3cc(-c4ccc(C(=O)NCC#Cc5cnc6c(c5)c(C5CCC(=O)NC5=O)cn6C)nc4)ncc23)cc2c1n(C)c(=O)n2C (centres unmarked) [Example A202, N-(3-(3-(2,6-dioxo-piperidin-3-yl)-1-methyl-1H-pyrrolo [2,3-b]pyridin-5-yl)prop-2-yn-1-yl)-5-(8-(7-isopropyl-1,3-dimethyl-2-oxo-2,3-dihydro-1H-benzo[d]imidazol-5-yl)isoquinolin-3-yl)picolinamide]
